In test [1] the target is T1, Beta-2 adrenergic receptor (Homo sapiens, UniProt P07550). The experiment in a line: Binding affinity to the human beta-2 adrenergic receptor assayed using [125I]iodocyanopindolol as radioligand in CHO cells. It is filed as cell-based.
Target sequence in this assay (P07550 whole entry): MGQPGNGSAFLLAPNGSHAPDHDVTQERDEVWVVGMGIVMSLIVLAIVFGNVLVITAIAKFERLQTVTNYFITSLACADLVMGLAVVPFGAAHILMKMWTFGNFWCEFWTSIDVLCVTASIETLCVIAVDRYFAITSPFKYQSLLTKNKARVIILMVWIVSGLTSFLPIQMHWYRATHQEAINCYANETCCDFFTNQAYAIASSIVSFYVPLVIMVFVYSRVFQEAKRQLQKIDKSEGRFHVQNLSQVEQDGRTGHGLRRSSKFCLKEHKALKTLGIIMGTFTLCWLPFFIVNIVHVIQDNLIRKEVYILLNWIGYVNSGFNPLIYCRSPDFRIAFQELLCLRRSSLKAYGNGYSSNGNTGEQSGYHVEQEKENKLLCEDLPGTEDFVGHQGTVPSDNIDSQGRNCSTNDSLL
Test [2] deals with T2, Beta-3 adrenergic receptor (Homo sapiens, UniProt P13945). The experiment in a line: Percent of maximal stimulation was determined as adenylate cyclase activation using isoproterenol as standard at a concentration of 1000 nM. It is filed as functional.
Target sequence in this assay (P13945 whole entry, looked up): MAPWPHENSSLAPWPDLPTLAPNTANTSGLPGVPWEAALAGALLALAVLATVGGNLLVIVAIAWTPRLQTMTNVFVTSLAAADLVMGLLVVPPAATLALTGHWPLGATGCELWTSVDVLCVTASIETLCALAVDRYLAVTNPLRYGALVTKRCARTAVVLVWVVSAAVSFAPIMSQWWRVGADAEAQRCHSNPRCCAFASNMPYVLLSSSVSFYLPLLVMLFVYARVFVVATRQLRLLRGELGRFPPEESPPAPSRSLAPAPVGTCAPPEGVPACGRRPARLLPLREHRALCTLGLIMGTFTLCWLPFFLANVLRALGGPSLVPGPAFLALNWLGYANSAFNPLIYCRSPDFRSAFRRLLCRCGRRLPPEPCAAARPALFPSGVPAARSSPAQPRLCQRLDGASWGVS
For test [3], the target named is T3, Beta-1 adrenergic receptor (Homo sapiens, UniProt P08588). Briefly: Binding affinity for human Beta-1 adrenergic receptor using [125I]iodocyanopindolol as radioligand in CHO cells. The class given is cell-based.
Target sequence in this assay (P08588 whole entry): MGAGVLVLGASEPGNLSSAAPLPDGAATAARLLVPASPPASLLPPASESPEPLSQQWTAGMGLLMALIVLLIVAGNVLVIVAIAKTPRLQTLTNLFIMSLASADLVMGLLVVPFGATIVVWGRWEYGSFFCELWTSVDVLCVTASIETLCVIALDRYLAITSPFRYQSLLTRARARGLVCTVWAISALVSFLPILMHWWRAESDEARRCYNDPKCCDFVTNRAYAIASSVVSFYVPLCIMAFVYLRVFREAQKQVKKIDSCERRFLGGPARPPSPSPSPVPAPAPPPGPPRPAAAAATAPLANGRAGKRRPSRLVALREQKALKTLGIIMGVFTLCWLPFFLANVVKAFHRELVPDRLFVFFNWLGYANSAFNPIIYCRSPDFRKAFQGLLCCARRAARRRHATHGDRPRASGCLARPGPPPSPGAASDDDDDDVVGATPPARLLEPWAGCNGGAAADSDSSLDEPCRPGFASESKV
The target of test [4] is T3, Beta-1 adrenergic receptor. Briefly: (§1) Percent of maximal stimulation was determined as adenylate cyclase activation using isoproterenol as standard at a concentration of 10000 nM. The class given is functional.
Target sequence in this assay (P08588 whole entry, looked up): as the sequence (P08588 whole entry) above
Test [5] has as its target T1, Beta-2 adrenergic receptor. Described as §1. It is filed as functional.
Target sequence in this assay (P07550 whole entry, looked up): as the sequence (P07550 whole entry) above
For test [6], the target named is T2, Beta-3 adrenergic receptor. The experiment in a line: In vitro maximum activation of adenylyl cyclase compared to isoproterenol. It is filed as functional.
Target sequence in this assay (P13945 whole entry, looked up): as the sequence (P13945 whole entry, looked up) above
The target of test [7] is T2, Beta-3 adrenergic receptor. Briefly: In vitro efficacy at human beta-3 adrenergic receptor.
Target sequence in this assay (P13945 whole entry): as the sequence (P13945 whole entry, looked up) above
The target in test [8] is T3, Beta-1 adrenergic receptor. The experiment in a line: Percent of maximal stimulation was determined as adenylate cyclase activation using isoproterenol as standard. It is filed as functional.
Target sequence in this assay (P08588 whole entry, looked up): as the sequence (P08588 whole entry) above
In test [9] the target is T1, Beta-2 adrenergic receptor. Briefly: Percent of maximal stimulation was determined as adenylate cyclase activation using isoproterenol as standard at a concentration of 10000 nM.
Target sequence in this assay (P07550 whole entry, looked up): as the sequence (P07550 whole entry) above
For test [10], the target named is T3, Beta-1 adrenergic receptor. The experiment in a line: Binding affinity towards human Beta-1 adrenergic receptor.
Target sequence in this assay (P08588 whole entry): as the sequence (P08588 whole entry) above

For orientation: IC50 means the point on the concentration scale where inhibition reaches its midpoint. Lower therefore signals higher potency. As for `N#CN/C(=N\c1ccc2c(c1)N(c1nc(-c3ccc(OC(F)(F)F)cc3)cs1)CC2)Nc1ccc(CCNC[C@H](O)c2cccnc2)cc1`, the IC50 in [1] turned out to be 710 nM; in test [3], 620 nM. In addition, the Activation in test [2] was 11%; in [4], 27%; in test [5] it was 20%.

`CCCCCCCCc1csc(N2CCc3cc(N/C(=N/c4ccc(CCNC[C@H](O)c5cccnc5)cc4)NC#N)ccc32)n1` gave an Activation in test [6] of 39%.

Regarding `N#CN/C(=N\c1cccc2ccccc12)Nc1ccc(CCNC[C@H](O)c2cccnc2)cc1`, in test [6], the Activation worked out at 64%.

The term EC50 denotes the concentration at which the effect is half-maximal. Lower therefore signals a more potent agent. Turning to `N#CN/C(=N\c1ccc(I)cc1)Nc1ccc(CCNC[C@H](O)c2cccnc2)cc1`, the 50% inhibitory concentration (IC50) amounted to 170 nM in test [1] and 730 nM in test [3]. The EC50 in test [7] turned out to be 100 nM. In test [6], this compound showed an Activation of 38%.

Consider `NC(=O)c1cccc(N/C(=C/[N+](=O)[O-])Nc2ccc(CCNC[C@H](O)c3cccnc3)cc2)c1`, for which the IC50 in [1] worked out at 1200 nM; in [3] it was 790 nM. Also, the EC50 in test [7] is 10 nM. Further, the Activation in test [6] amounted to 101%.

With `N#CN/C(=N\c1cc(Cl)cc(Cl)c1)Nc1ccc(CCNC[C@H](O)c2cccnc2)cc1`, the concentration for half-maximal inhibition (IC50) was found to be 140 nM in test [1] and 290 nM in test [3]. The half-maximal effective concentration (EC50) in test [7] is 89 nM. Further, the Activation in [6] stood at 72%.

`N#CN/C(=N\c1cccc(Oc2ccccc2)c1)Nc1ccc(CCNC[C@H](O)c2cccnc2)cc1`: the values for the IC50 in test [1] and in [3] were 40 nM and 240 nM, respectively. Moreover, the EC50 in test [7] amounted to 26 nM. In addition, in [6], the Activation stood at 70%.

Regarding `O=[N+]([O-])/C=C(\Nc1ccc(CCNC[C@H](O)c2cccnc2)cc1)Nc1cccc(I)c1`, the half-inhibitory concentration (IC50) in test [1] was found to be 1200 nM; in test [3], 1100 nM. Also, the EC50 in test [7] turned out to be 22 nM. The compound further yielded an Activation in [6] of 97%.

As for `N#CN=C(Nc1ccc(CCNC[C@H](O)c2cccnc2)cc1)Nc1cccc2ccccc12`, the IC50 worked out at 570 nM in test [1] and 480 nM in test [3]. Besides, the concentration for a half-maximal effect (EC50) in test [7] is 42 nM.

Consider `N#CN=C(Nc1ccc2c(c1)CCN2c1nc(-c2ccc(OC(F)(F)F)cc2)cs1)Nc1ccc2cc(CCNC[C@H](O)c3cccnc3)ccc2c1`, for which the results for the IC50 in [1] and in [3] were 7100 nM and 2300 nM, respectively. The compound also registered an EC50 in test [7] of 19 nM.

`N#CN/C(=N\c1cccc(F)c1)Nc1ccc(CCNC[C@H](O)c2cccnc2)cc1` came in with an Activation in test [6] of 69%.

In the case of `N#CN=C(Nc1ccc(CCNC[C@H](O)c2cccnc2)cc1)Nc1cccc(F)c1`, the half-inhibitory concentration (IC50) was found to be 200 nM in [1] and 590 nM in [3]. In [7], this compound had a half-maximal effective concentration (EC50) of 100 nM.

Turning to `CCCCCCCCc1csc(N2CCc3cc(NC(=NC#N)Nc4ccc(CCNC[C@H](O)c5cccnc5)cc4)ccc32)n1`, the concentration for half-maximal inhibition (IC50) in test [1] stood at 50 nM; in test [3], 16 nM. In addition, the 50% effective concentration (EC50) in test [7] was found to be 11 nM.

On to `O=[N+]([O-])/C=C(\Nc1ccc(CCNC[C@H](O)c2cccnc2)cc1)Nc1cc(Cl)cc(Cl)c1`, for which the half-inhibitory concentration (IC50) in [1] is 5600 nM; in [3] it was 3800 nM. Further, the EC50 in test [7] came to 35 nM. In test [6], the Activation was 85%.

Turning to `O=[N+]([O-])/C=C(\Nc1ccc(CCNC[C@H](O)c2cccnc2)cc1)Nc1cccc(F)c1`, the concentration for half-maximal inhibition (IC50) in [1] was 2400 nM; in test [3] it was 3000 nM. In test [7], this compound displayed an EC50 of 300 nM. The Activation in test [6] came out at 79%.

As for `CCCCCCCCc1csc(N2CCc3c(N/C(=N/c4ccc(CCNC[C@H](O)c5cccnc5)cc4)NC#N)cccc32)n1`, the half-maximal inhibitory concentration (IC50) in test [1] stood at 930 nM; in [3], 1200 nM. The compound also yielded a concentration giving a half-maximal response (EC50) in test [7] of 13 nM. Moreover, the Activation is 62% in [6], 11% in test [4] and 25% in [5].

With `N#CN/C(=N\c1ccc(CCNC[C@H](O)c2cccnc2)cc1)Nc1cccc(C(N)=O)c1`, the figures for the IC50 in test [1] and in [3] were 400 nM and 980 nM, respectively. This compound also registered a concentration for a half-maximal effect (EC50) in [7] of 150 nM. Moreover, the Activation in test [6] turned out to be 76%.

As for `O=[N+]([O-])/C=C(\Nc1ccc(CCNC[C@H](O)c2cccnc2)cc1)Nc1cccc(Oc2ccccc2)c1`, the 50% inhibitory concentration (IC50) in test [1] is 220 nM; in test [3] it was 830 nM. The compound further came in with an EC50 in [7] of 120 nM. This compound showed an Activation in test [6] of 93%.

Take `CCCCCCCCc1csc(N2CCc3cc(N/C(S)=N/c4ccc(CCNC[C@H](O)c5cccnc5)cc4)ccc32)n1`: the IC50 stood at 260 nM in test [1] and 110 nM in test [3]. The compound also returned a 50% effective concentration (EC50) in test [7] of 5.3 nM.

Turning to `N#CN/C(=N\c1ccc2c(c1)CCN2c1nc(-c2ccc(OC(F)(F)F)cc2)cs1)Nc1ccc(CCNC[C@H](O)c2cccnc2)cc1`, the Activation in test [8] was 73%; in test [6] it was 82%; in [9] it was 51%.

In the case of `N#CN=C(Nc1ccc(CCNC[C@H](O)c2cccnc2)cc1)Nc1ccc2ccccc2c1`, the 50% inhibitory concentration (IC50) in [1] was found to be 50 nM; in test [3], 740 nM. Also, the concentration for a half-maximal effect (EC50) in test [7] was determined as 130 nM.

Take `N#CN/C(=N\c1cccc2c1CCN2c1nc(-c2ccc(OC(F)(F)F)cc2)cs1)Nc1ccc(CCNC[C@H](O)c2cccnc2)cc1`: the concentration for half-maximal inhibition (IC50) was greater than 10000 nM in [1] and 8400 nM in test [3]. Besides, the midpoint of the response in test [7], the EC50, lay at 57 nM. Also, the Activation in test [6] was determined as 72%; in test [4], 6%; in test [5], 20%.

Turning to `O=[N+]([O-])/C=C(\Nc1ccc(CCNC[C@H](O)c2cccnc2)cc1)Nc1cccc2ccccc12`, the figures for the IC50 in [1] and in [3] were 370 nM and 1800 nM, respectively. Moreover, a half-maximal effect in test [7] (EC50) was put at 140 nM. The Activation in test [6] is 79%.

As for `CCCCCCCCc1csc(N2CCc3cc(S(=O)(=O)Nc4ccc(CCNC[C@H](O)c5cccnc5)cc4)ccc32)n1`, the concentration for half-maximal inhibition (IC50) in test [1] turned out to be 1300 nM; in test [3] it was 2500 nM. This compound showed an EC50 in test [7] of 0.93 nM.

`N#CN/C(=N\c1cccc(I)c1)Nc1ccc(CCNC[C@H](O)c2cccnc2)cc1` had an Activation in test [6] of 51%.

For `O=[N+]([O-])/C=C(\Nc1ccc(CCNC[C@H](O)c2cccnc2)cc1)Nc1ccc2ccccc2c1`, the figures for the half-inhibitory concentration (IC50) in [1] and in [3] were 3400 nM and 820 nM, respectively. In test [7], this compound came in with an EC50 of 180 nM. Besides, in test [6], the Activation was determined as 74%.

On to `CCCCCCCCc1csc(N2CCc3ccc(N/C(=N/c4ccc(CCNC[C@H](O)c5cccnc5)cc4)NC#N)cc32)n1`, for which the figures for the 50% inhibitory concentration (IC50) in test [1] and in [3] were 66 nM and 74 nM, respectively. Besides, the 50% effective concentration (EC50) in test [7] is 59 nM. In test [6], this compound had an Activation of 38%.

In the case of `N#CN=C(Nc1ccc(CCNC[C@H](O)c2cccnc2)cc1)Nc1ccc2c(c1)CCN2c1nc(-c2ccc(OC(F)(F)F)cc2)cs1`, the IC50 in test [1] amounted to 180 nM; in [3], 65 nM. Moreover, the EC50 was determined as 41 nM in test [10] and 13 nM in test [7].

Consider `N#CN=C(Nc1ccc(CCNC[C@H](O)c2cccnc2)cc1)Nc1cccc(I)c1`, for which the concentration for half-maximal inhibition (IC50) in test [1] amounted to 67 nM; in test [3] it was 230 nM. The compound further yielded a half-maximal effective concentration (EC50) in [7] of 59 nM.

`N#CN/C(=N\c1ccc2ccccc2c1)Nc1ccc(CCNC[C@H](O)c2cccnc2)cc1`: in [6], the Activation is 41%.

In the case of `N#CN/C(=N\c1ccc2c(c1)CCN2c1nc(-c2ccc(OC(F)(F)F)cc2)cs1)Nc1ccc2cc(CCNC[C@H](O)c3cccnc3)ccc2c1`, the Activation in test [6] was found to be 62%; in test [4], 2%; in [5], 11%.

(Values after ChEMBL document CHEMBL1134823, “Human beta3 adrenergic receptor agonists containing cyanoguanidine and nitroethylenediamine moieties” (Bioorg Med Chem Lett, 2001).)
